Reference: patent publication US11771738B2 (Zoetis Services LLC, priority 2018, dated 2023)
Where two headings read alike, the source gives them in different places.

Columns and labels:
Type in all cases: cell-based
[1] = system: microfilariae of Dirofilaria immitis; experiment: Dirofilaria immitis, Microfilaria (DiMf) In Vitro Assay; details: Dirofilaria immitis, 72 h, read-out: DiMf MED, Minimum Effective Dose, D. immitis microfilariae motility, in vitro
[2] = system: third stage larvae of Haemonchus contortus; experiment: Haemonchus contortus, Larvae Stage 3 (HcL3) In Vitro Assay; details: Haemonchus contortus, 96 h
D. immitis L4 larvae = experiment: Dirofilaria immitis, L4 Stage (DiL4) In Vitro Assay; details: for minimal effective concentration: Dirofilaria immitis, 72 h, read-out: DiL4 MED, Minimum Effective Dose, D. immitis L4 larvae motility, in vitro; for DiMf/DiL4: larval stage selectivity, ratio of DiMf MED to DiL4 MED
[3] = read-out: HcL3 MED, Haemonchus contortus third stage larvae in vitro, class mark appended to the Ex # in Table 3
[4] = read-out: HcL3 MED, Minimum Effective Dose, H. contortus third stage larvae, approximately 96 hours
[5] = read-out: HcL3 MED, approximately 96 hours incubation, multiple-resistant field isolate
[6] = read-out: HcL3 MED (symbol after Ex#), approximately 96 hours incubation, multiple-resistant field isolate

Row | SMILES | minimal effective concentration [1] [µM] | minimal effective concentration [2, 3] [µM] | minimal effective concentration [2, 4] [µM] | minimal effective concentration [2, 5] [µM] | minimal effective concentration (D. immitis L4 larvae) [µM] | DiMf/DiL4 (D. immitis L4 larvae) | minimal effective concentration [2, 6] [µM]
1 | CC(C)C[C@H]1C(=O)O[C@H](Cc2ccc(Cc3nccs3)cc2)C(=O)N(C)[C@@H](CC(C)C)C(=O)O[C@H](C)C(=O)N(C)[C@@H](CC(C)C)C(=O)O[C@H](Cc2ccc(Cc3nccs3)cc2)C(=O)N(C)[C@@H](CC(C)C)C(=O)O[C@H](C)C(=O)N1C [Example 3-17, (3S,6R,9S,12R,15S,18R,21S,24R)-3,9,15,21-tetraisobutyl-4,6,10,16,18,22-hexamethyl-12,24-bis(4-(thiazol-2-ylmethyl)benzyl)-1,7,13,19-tetraoxa-4,10,16,22-tetraazacyclotetracosan-2,5,8,11,14,17,20,23-octaone] | 0.0003 | < 1 | 0.5 | ≤ 1 | 0.0003 | 1 | –
2 | Cc1noc(C)c1Cc1ccc(C[C@H]2OC(=O)[C@H](CC(C)C)N(C)C(=O)[C@@H](C)OC(=O)[C@H](CC(C)C)N(C)C(=O)[C@@H](Cc3ccc(Cc4c(C)noc4C)cc3)OC(=O)[C@H](CC(C)C)N(C)C(=O)[C@@H](C)OC(=O)[C@H](CC(C)C)N(C)C2=O)cc1 [Example 3-21, (3S,6R,9S,12R,15S,18R,21S,24R)-6,18-bis(4-((3,5-dimethylisoxazol-4-yl)methyl)benzyl)-3,9,15,21-tetraisobutyl-4,10,12,16,22,24-hexamethyl-1,7,13,19-tetraoxa-4,10,16,22-tetraazacyclotetracosan-2,5,8,11,14,17,20,23-octaone] | 0.0001 | < 1 | 0.3 | ≤ 1 | < 3e-05 | >3.3 | –
3 | CC(C)C[C@H]1C(=O)O[C@H](Cc2ccc(Cc3ccnn3C)cc2)C(=O)N(C)[C@@H](CC(C)C)C(=O)O[C@H](C)C(=O)N(C)[C@@H](CC(C)C)C(=O)O[C@H](Cc2ccc(Cc3ccnn3C)cc2)C(=O)N(C)[C@@H](CC(C)C)C(=O)O[C@H](C)C(=O)N1C [Example 3-24, (3S,6R,9S,12R,15S,18R,21S,24R)-3,9,15,21-tetraisobutyl-4,6,10,16,18,22-hexamethyl-12,24-bis(4-((1-methyl-1H-pyrazol-5-yl)methyl)benzyl)-1,7,13,19-tetraoxa-4,10,16,22-tetraazacyclotetracosan-2,5,8,11,14,17,20,23-octaone] | 0.0001 | < 1 | 1 | ≤ 1 | 3e-05 | 3.3 | –
4 | Cc1c[nH]c(C)c1Cc1ccc(C[C@H]2OC(=O)[C@H](CC(C)C)N(C)C(=O)[C@@H](C)OC(=O)[C@H](CC(C)C)N(C)C(=O)[C@@H](Cc3ccccc3)OC(=O)[C@H](CC(C)C)N(C)C(=O)[C@@H](C)OC(=O)[C@H](CC(C)C)N(C)C2=O)cc1 [Example 4-19, (3S,6R,9S,12R,15S,18R,21S,24R)-6-benzyl-18-(4-((2,4-dimethyl-1H-pyrrol-3-yl)methyl)benzyl)-3,9,15,21-tetraisobutyl-4,10,12,16,22,24-hexamethyl-1,7,13,19-tetraoxa-4,10,16,22-tetraazacyclotetracosan-2,5,8,11,14,17,20,23-octaone] | 0.1 | – | > 10 | – | 0.001 | 100 | –
5 | CC(C)C[C@H]1C(=O)O[C@H](Cc2ccc(Cc3ccco3)cc2)C(=O)N(C)[C@@H](CC(C)C)C(=O)O[C@H](C)C(=O)N(C)[C@@H](CC(C)C)C(=O)O[C@H](Cc2ccccc2)C(=O)N(C)[C@@H](CC(C)C)C(=O)O[C@H](C)C(=O)N1C [Example 4-32, (3S,6R,9S,12R,15S,18R,21S,24R)-6-benzyl-18-(4-(furan-2-ylmethyl)benzyl)-3,9,15,21-tetraisobutyl-4,10,12,16,22,24-hexamethyl-1,7,13,19-tetraoxa-4,10,16,22-tetraazacyclotetracosan-2,5,8,11,14,17,20,23-octaone] | 0.003 | – | 1 | ≤ 1 | 0.001 | 3 | < 1
6 | CC(C)C[C@H]1C(=O)O[C@H](Cc2ccc(Cc3snnc3C(C)C)cc2)C(=O)N(C)[C@@H](CC(C)C)C(=O)O[C@H](C)C(=O)N(C)[C@@H](CC(C)C)C(=O)O[C@H](Cc2ccc(Cc3snnc3C(C)C)cc2)C(=O)N(C)[C@@H](CC(C)C)C(=O)O[C@H](C)C(=O)N1C [Example 3-228, (3S,6R,9S,12R,15S,18R,21S,24R)-3,9,15,21-tetraisobutyl-6,18-bis(4-((4-isopropyl-1,2,3-thiadiazol-5-yl)methyl)benzyl)-4,10,12,16,22,24-hexamethyl-1,7,13,19-tetraoxa-4,10,16,22-tetraazacyclotetracosan-2,5,8,11,14,17,20,23-octaone] | 0.01 | – | > 100 | – | 0.0005 | 20 | –
7 | COc1ncccc1C(C)c1ccc(C[C@H]2OC(=O)[C@H](CC(C)C)N(C)C(=O)[C@@H](C)OC(=O)[C@H](CC(C)C)N(C)C(=O)[C@@H](Cc3ccc(C(C)c4cccnc4OC)cc3)OC(=O)[C@H](CC(C)C)N(C)C(=O)[C@@H](C)OC(=O)[C@H](CC(C)C)N(C)C2=O)cc1 (stereo partly drawn) [Example 3-261, (3S,6R,9S,12R,15S,18R,21S,24R)-3,9,15,21-tetraisobutyl-6,18-bis(4-(1-(2-methoxypyridin-3-yl)ethyl)benzyl)-4,10,12,16,22,24-hexamethyl-1,7,13,19-tetraoxa-4,10,16,22-tetraazacyclotetracosan-2,5,8,11,14,17,20,23-octaone] | 0.03 | – | > 100 | – | < 0.0001 | >300 | –
8 | CC(C)C[C@H]1C(=O)O[C@H](Cc2ccc(Cc3scnc3Cl)cc2)C(=O)N(C)[C@@H](CC(C)C)C(=O)O[C@H](C)C(=O)N(C)[C@@H](CC(C)C)C(=O)O[C@H](Cc2ccccc2)C(=O)N(C)[C@@H](CC(C)C)C(=O)O[C@H](C)C(=O)N1C [Example 4-107, (3S,6R,9S,12R,15S,18R,21S,24R)-6-benzyl-18-(4-((4-chlorothiazol-5-yl)methyl)benzyl)-3,9,15,21-tetraisobutyl-4,10,12,16,22,24-hexamethyl-1,7,13,19-tetraoxa-4,10,16,22-tetraazacyclotetracosan-2,5,8,11,14,17,20,23-octaone] | 0.003 | – | 0.3 | ≤ 1 | 0.0002 | 15 | < 1
9 | Cc1ncncc1Cc1ccc(C[C@H]2OC(=O)[C@H](CC(C)C)N(C)C(=O)[C@@H](C)OC(=O)[C@H](CC(C)C)N(C)C(=O)[C@@H](Cc3ccc(Cc4cncnc4C)cc3)OC(=O)[C@H](CC(C)C)N(C)C(=O)[C@@H](C)OC(=O)[C@H](CC(C)C)N(C)C2=O)cc1 [Example 3-294, (3S,6R,9S,12R,15S,18R,21S,24R)-3,9,15,21-tetraisobutyl-4,6,10,16,18,22-hexamethyl-12,24-bis(4-((4-methylpyrimidin-5-yl)methyl)benzyl)-1,7,13,19-tetraoxa-4,10,16,22-tetraazacyclotetracosan-2,5,8,11,14,17,20,23-octaone] | 0.0001 | < 1 | 1 | ≤ 1 | 0.0001 | 1 | –
10 | CC(C)C[C@H]1C(=O)O[C@H](Cc2ccc([C@@H](c3ccc(OC(F)(F)F)cc3)N3CCOCC3)cc2)C(=O)N(C)[C@@H](CC(C)C)C(=O)O[C@H](C)C(=O)N(C)[C@@H](CC(C)C)C(=O)O[C@H](Cc2ccccc2)C(=O)N(C)[C@@H](CC(C)C)C(=O)O[C@@H](C)C(=O)N1C [Example 2-42, (3S,6R,9S,12R,15S,18R,21S,24S)-6-benzyl-3,9,15,21-tetraisobutyl-4,10,12,16,22,24-hexamethyl-18-[[4-[(S)-morpholino-[4-(trifluoromethoxy)phenyl]-methyl]phenyl]methyl]-1,7,13,19-tetraoxa-4,10,16,22-tetrazacyclotetracosane-2,5,8,11,14,17,20,23-octaone] | 0.3 | – | > 10 | – | 0.0003 | 1000 | –
